# Reference: patent US8609659B2, “Substituted 3,8-diazabicyclo[3.2.1]octane compounds” (Neuroscienze Pharmaness S.C.A.R.L., priority 2009, dated 2013)
# Where two headings read alike, the source gives them in different places.
# Tests used:
# μ opioidergic receptors = biological target: T1, μ opioidergic receptors (Mus musculus, UniProt P42866); experiment: Radioreceptorial binding, μ opioidergic receptors ([3H]-DAMGO, mouse brain membranes); conditions: 1 nM [3H]-DAMGO, CD1 mouse brain membranes, 25° C., 60 minutes
# T1 construct: from tissue; host or cells: CD1 mouse brain (excluding cerebellum) membranes
# δ opioidergic receptors [1] = biological target: T2, δ opioidergic receptors (Mus musculus, UniProt P32300); experiment: Radioreceptorial binding, δ opioidergic receptors ([3H]-DPDPE, mouse brain membranes); conditions: 1 nM [3H]-DPDPE, CD1 mouse brain membranes, 25° C., 60 minutes
# T2 construct: from tissue; host or cells: CD1 mouse vas deferens segments (isolated organ)
# δ opioidergic receptors [2] = biological target: T2, δ opioidergic receptors; experiment: Ex-vivo model, isolated organ: electrically induced contractions of mouse vas deferens; conditions: for inhibition: read-out: % contraction inhibition after addition of ICI 17.4864; for % contraction inhibition: no antagonist, average of 7 experiments; for activity towards the delta opioid receptors: inhibition of contractions antagonized by ICI 17.4864 or Naltrindol
# Method: Said effect is antagonized by selective antagonists of the delta opioid receptors, for example the compounds ICI 17.4864 and Naltrindol.
# For evaluating the activity of the compounds of the invention on the delta opioid receptors, the compounds respectively obtained in Examples 6.1 and 6.9 were subjected to tests carried out on the basis of the method described by E. J. Bilsky et al. (J.P.E.T., 1995 April; 273 (1):359-366). The experiments were carried out on samples of vas deferent segments taken from CD1 mice (25-30 grams) immediately after sacrifice. After the explant, the vas deferent segments were transferred in a Petri dish containing a Krebs oxygenated solution (118.2 mM NaCl, 4.75 mM KCl, 1.19 mM KH2PO4, 25.0 mM NaHCO3, 11.0 mM glucose, and 2.54 mM CaCl2) in order to proceed to the cleaning of the samples and their subsequent dissection in segments. Segments of vas deferens were so obtained having a length of 1.0-1.2 cm. They were thus immersed in tubs containing 10 ml of an oxygenated Krebs solution (95% O2 and 5% CO2) and kept at a temperature of 37° C. One end of the vas deferens segment was attached to a fixed support, at the tub bottom, while the other end was connected to an isometric force transducer (WPI Fort10, Biological Instruments, Besozzo, Italy) for the registration of the contractions induced by electric stimuli. The samples were then allowed to equilibrate for 60 minutes, changing the Krebs solution every 15 minutes. The samples were then subjected to treatment cycles wherein the electrical stimulation lasted 3 minutes, with an interval of 15 minutes before the following stimulation. The isometric contractions were evoked with sequences of 3 pulses (sequence frequency 0.1 Hz; pulse duration 2 ms) by means of platinum electrodes placed at the sides of the samples. The electrical stimuli were generated by a Grass S88K stimulator and amplified (multiplexing pulse booster 316S; Ugo Basile, Comerio, Italy). The musculature contractions of the vas deferens were monitored by a computer, recorded and analyzed by an analysis system (PowerLab 400). The compounds of the invention were added to the vas deferens in cumulative doses, in the absence or in the presence of one of the following antagonists of the delta opioid receptors: ICI 17.4864 and Naltrindol.
# The effect of the tested compounds on the contractions of vas deferens musculature was expressed in percent, calculated by referring the amplitude of the contractions induced by the electrical stimulations after each addition of the test compound to the amplitude of the contractions obtained in the absence of the same compound (100%).
# The results obtained with the compounds of Examples 6.1 and 6.9 are reported, respectively, in Table 2 and in Table 3. The results are an average of the data obtained in seven different experiments.
# mouse = format: in vivo; conditions: 5 mg/Kg i.p., average ± SEM of 6 animals
# Method: In the Tail Flick test it is determined the time elapsed between the exposure of one part of the mouse tail (2 cm measured from the tail tip) to a small heat source and the time when the animal moves away the tail (Ruiu) S. et al. in J. Pharmacol. Exp. Ther.; 306 (1) (2003) 363-370). This time interval is automatically calculated by a specific equipment for the Tail-Flick test (Apparatus for the Tail Flick, Ugo Basile, Italy). The equipment is provided with an infrared lamp that is the heat regulatable source. For avoiding lesions to the tail tissues a maximum latency time has been fixed (cut-off=12 sec), after which the tail is moved away from the heat source.
# The values of the latency time obtained in the experimentation were expressed in MPE % (maximum possible effect %), according to the formula:
# [formula] wherein: Test Latency is the time in seconds elapsed before the animal moves away the tail from the heat source, Base Latency is the time in seconds elapsed before the same, untreated animal moves away the tail from the heat source.
# The analgesic potency of the compound obtained in Example 6.1 was evaluated. The compound was solubilized in an aqueous solution (carrier), formed of a mixture of a physiological solution, ethanol and Cremophor® EL in the ratios by volume: 18.5:1.0:0.5. The blank or control was the carrier. The test compound was administered by intraperitoneal (i.p.) route, by using a solution volume to obtain a dose of 5 mg/kg.
# The duration of the analgesic effect was evaluated by determining the MPE % values obtained at different times (20, 40, 60, 120 minutes) from administration of the compound and of the corresponding control (carrier).
# Example 13 was repeated but using the compound synthesized in Ex. 6.9. The analgesic activity was evaluated at 30, 60, 120 and 240 minutes from the administration of the compound. The compound was administered at the dose of 5 mg/Kg after solubilization in an aqueous solution (carrier) formed of physiological solution, ethanol and Cremophor® EL in the same ratios as indicated in Example 13.
# In order to evaluate the property of the compounds of formula (I) in the modulation of the analgesic effect of morphine, the Tail Flick test was carried out by using either only morphine or morphine in association with the compound of Ex. 6.9. The procedure described in Ex. 13 was repeated by recording the MPE % values at different times from the administration of the tested compounds: 30, 60, 120 and 240 minutes.
# [3] = compound 10^−6 moles/litre + NTI 5 × 10^−8 M
# [4] = compound 10^−7 moles/litre + NTI 5 × 10^−8 M
# [5] = compound 10^−8 moles/litre + NTI 5 × 10^−8 M
# [6] = compound 10^−9 moles/litre + NTI 5 × 10^−8 M
# [7] = compound 10^−10 moles/litre + NTI 5 × 10^−8 M
# [8] = compound 10^−11 moles/litre + NTI 5 × 10^−8 M
# T2 sequence (P32300 whole entry): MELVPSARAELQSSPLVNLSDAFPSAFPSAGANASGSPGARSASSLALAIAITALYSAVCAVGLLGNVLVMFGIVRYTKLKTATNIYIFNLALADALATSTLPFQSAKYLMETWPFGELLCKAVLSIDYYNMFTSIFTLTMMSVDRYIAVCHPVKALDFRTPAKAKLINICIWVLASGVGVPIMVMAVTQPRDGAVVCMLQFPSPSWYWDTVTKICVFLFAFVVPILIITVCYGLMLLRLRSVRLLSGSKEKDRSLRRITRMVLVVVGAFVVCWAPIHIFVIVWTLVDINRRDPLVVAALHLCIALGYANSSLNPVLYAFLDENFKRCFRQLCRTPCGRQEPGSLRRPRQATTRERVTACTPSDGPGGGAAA
# T1 sequence (P42866 whole entry): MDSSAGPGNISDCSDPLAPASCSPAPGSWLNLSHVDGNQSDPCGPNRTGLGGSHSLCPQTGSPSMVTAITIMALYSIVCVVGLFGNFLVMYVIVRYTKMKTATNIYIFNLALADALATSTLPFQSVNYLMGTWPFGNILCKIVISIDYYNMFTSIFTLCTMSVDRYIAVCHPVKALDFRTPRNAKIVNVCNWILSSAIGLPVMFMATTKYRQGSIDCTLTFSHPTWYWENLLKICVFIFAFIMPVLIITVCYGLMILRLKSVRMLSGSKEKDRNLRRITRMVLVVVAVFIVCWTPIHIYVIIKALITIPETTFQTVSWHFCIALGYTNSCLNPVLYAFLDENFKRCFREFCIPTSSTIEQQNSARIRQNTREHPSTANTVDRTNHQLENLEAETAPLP
SMILES,Ki (μ opioidergic receptors),Ki (δ opioidergic receptors [1]),% contraction inhibition after addition of Naltrindol NTI (δ opioidergic receptors [2]; [3]),% contraction inhibition (δ opioidergic receptors [2]; compound 10^−6 moles/litre),% contraction inhibition after addition of Naltrindol NTI (δ opioidergic receptors [2]; [4]),% contraction inhibition (δ opioidergic receptors [2]; compound 10^−7 moles/litre),% contraction inhibition after addition of Naltrindol NTI (δ opioidergic receptors [2]; [5]),% contraction inhibition (δ opioidergic receptors [2]; compound 10^−8 moles/litre),% contraction inhibition after addition of Naltrindol NTI (δ opioidergic receptors [2]; [6]),% contraction inhibition (δ opioidergic receptors [2]; compound 10^−9 moles/litre),% contraction inhibition after addition of Naltrindol NTI (δ opioidergic receptors [2]; [7]),% contraction inhibition (δ opioidergic receptors [2]; compound 10^−10 moles/litre),% contraction inhibition after addition of Naltrindol NTI (δ opioidergic receptors [2]; [8]),% contraction inhibition (δ opioidergic receptors [2]; compound 10^−11 moles/litre),activity towards the delta opioid receptors (δ opioidergic receptors [2]),MPE % (mouse; 60 min),MPE % (mouse; 120 min),also measured
"C=CCN1C2CCC1C1CCC2N1C(c1ccc(C(=O)N(CC)CC)cc1)c1cccc(O)c1 (centres unmarked) [Example 6.9, 4-[(10-allyl-9,10-diazatricyclo[4.2.1.1^2,5]dec-9-yl)-(3-hydroxyphenyl)methyl]-N,N-diethylbenzamide]",20 ± 0.5 nM,0.23 ± 0.03 nM,67.5%,85.0%,29.0%,83.0%,8.9%,70.0%,5.2%,40.0%,4.5%,17.0%,3.0%,7.5%,agonist activity,32.8 ± 10.0%,18.5 ± 2.0%,inhibition (δ opioidergic receptors [2]; compound 10^−6 moles/litre + ICI 17.4864 2 × 10^−6 M): 52.2%; inhibition (δ opioidergic receptors [2]; compound 10^−7 moles/litre + ICI 17.4864 2 × 10^−6 M): 28.2%; inhibition (δ opioidergic receptors [2]; compound 10^−8 moles/litre + ICI 17.4864 2 × 10^−6 M): 9.5%; inhibition (δ opioidergic receptors [2]; compound 10^−9 moles/litre + ICI 17.4864 2 × 10^−6 M): 4%; inhibition (δ opioidergic receptors [2]; compound 10^−10 moles/litre + ICI 17.4864 2 × 10^−6 M): 2.5%; inhibition (δ opioidergic receptors [2]; compound 10^−11 moles/litre + ICI 17.4864 2 × 10^−6 M): 1.8%; MPE % (mouse; 30 min): 30.1 ± 2.7%; MPE % (mouse; 240 min): 1.2 ± 0.6%
"C=CCN1C2CCC1C1CCC2N1C(c1ccc(C(=O)N(CC)CC)cc1)c1cccc(OC)c1 (centres unmarked) [Example 6.1, 4-[(10-allyl-9,10-diazatricyclo[4.2.1.1^2,5]dec-9-yl)-(3-methoxyphenyl)methyl]-N,N-diethylbenzamide]",1630 ± 186 nM,0.203 ± 0.032 nM,41.0%,86.0%,24.9%,71.5%,19.0%,51.0%,11.5%,32.0%,5.0%,16.0%,4.0%,5.5%,agonist activity,20.0 ± 3.0%,13.2 ± 2.8%,MPE % (mouse; 20 min): 15.1 ± 3.5%; MPE % (mouse; 40 min): 50.1 ± 12.0%
